The target of experiment [1] is T1, hFXR-LBD (interaction with coactivator SRC-1) (Homo sapiens, UniProt Q96RI1).
T1 construct: human FXRα-LBD (200-473 AA) was sub-cloned into vector pGBKT-7; expressed in transfected cells; host or cells: Saccharomyces cerevisiae strain AH109 (Clontech), co-transformed with pGBKT7-FXR LBD and pGADT7-SRC-1
T1 sequence (Q96RI1 214-486): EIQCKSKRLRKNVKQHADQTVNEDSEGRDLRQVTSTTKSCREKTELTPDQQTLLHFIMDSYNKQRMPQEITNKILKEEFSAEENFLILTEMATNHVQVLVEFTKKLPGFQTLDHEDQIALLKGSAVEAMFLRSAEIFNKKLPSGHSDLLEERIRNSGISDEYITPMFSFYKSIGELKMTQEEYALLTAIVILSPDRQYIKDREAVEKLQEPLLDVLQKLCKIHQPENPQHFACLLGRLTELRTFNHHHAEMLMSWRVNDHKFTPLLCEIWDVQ
Nature of the experiment: Y2H agonist assay: SRC-1 recruitment to FXR-LBD (α-galactosidase readout). Type of experiment: cell-based. Conditions: GAtreated/GADMSO (DMSO = 1.00), average of triplicate. From the text: Each experiment was repeated three times independently.
agonistic activation=GAtreated/GADMSOinhibition rate(%)=GACDCA−GAtreated/GACDCA−GADMSO
where GA indicates α-galactosidase activity.

Experiment [2] deals with T2, hFXR-LBD (interaction with coactivator SRC-1) (Homo sapiens, UniProt Q96RI1).
T2 sequence (Q96RI1 200-472 isoform Q96RI1-2): T1 sequence (Q96RI1 214-486)
Nature of the experiment: Y2H antagonist assay: inhibition of CDCA-induced SRC-1 recruitment to FXR-LBD (α-galactosidase readout). Conditions: for inhibition at 25 µM: read-out: Inhibition rate % (25 μM), 25 μM compound plus 10 μM CDCA, 24 h, average of triplicate; for antagonistic activity against FXR (in words): coactivator recruitment assay.

The test system of experiment [3] is FXR. Conditions: cited from earlier work.
Experiment [4] concerns estrogen receptor (ER). The settings on record: cited from earlier work; for agonistic profiles against ER (in words): ref Cao et al., 2013.
The test system of experiment [5] is FXR. Also noted: method as in Xu et al., 2015. The settings on record: FXR antagonist; ref Xu et al., 2015; cited from earlier work.
Experiment [6] relates to FXR. More on the design: method as in Dussault et al., 2003. Conditions: FXR antagonist; ref Dussault et al., 2003; cited from earlier work.
Experiment [7] relates to FXR. The settings on record: FXR antagonist, cited from earlier work.
Experiment [8] concerns FXR. Conditions: FXR antagonist, cited from earlier work. The source holds these as a separate data set.

We go through 18 compounds from article PMC5936786, “Discovery of Natural Products as Novel and Potent FXR Antagonists by Virtual Screening” (Frontiers in Chemistry, 2018).

“Also recorded” adds a separate entry of the source. Where two headings read alike, the source gives them in different places. Bounds are passed on as bounds.

For the compound `O=C(CCCCc1ccccc1)c1ccc(O)cc1` [Compound 3a, Daphneone], the “Agonistic activation (25 μM)” value in experiment [1] is 1.03. Besides, in experiment [2], the 50% inhibitory concentration (IC50) is 1.79 µM and the “fold higher antagonistic activity against FXR compared to guggulsterone” value was 3 fold.

Regarding `CC(C)(O)c1ccc2c(c1)C(=O)CC1[C@](C)(C(=O)O)CCC[C@]21C` (stereo partly drawn) [Compound 2a, 15-Hydroxy-7-oxo-8,11,13-abietatrien-18-oic acid], the “Agonistic activation (25 μM)” value in experiment [1] is 1.05. Moreover, 1.29 µM corresponded to half-maximal inhibition in experiment [2] (IC50). For the same compound, the “fold stronger antagonistic activity compared with compound 1a” value in experiment [2] (vs compound 1a) turned out to be 10 fold.

Turning to `CC[C@H]1[C@@H](O)[C@@H]2[C@H](CC[C@]3(C)[C@@H]([C@H](C)CCC(=O)O)CC[C@@H]23)[C@@]2(C)CC[C@@H](O)C[C@@H]12` [Compound 6-ECDCA, 6α-ethyl-chenodeoxycholic acid], the EC50 in experiment [3] (ref Pellicciari et al., 2002, read-out: EC50, FXR agonistic activity) is […]. Also, the “fold more potent FXR agonistic activity than CDCA” value in experiment [3] (vs CDCA) is given as […].

As to `O=C(CC(O)CCc1ccccc1)c1ccc(O)cc1` (stereo not drawn) [Compound 3b, Daphneolon], the “Agonistic activation (25 μM)” value in experiment [1] stood at 0.76. In addition, in experiment [2], the IC50 is over 25 µM and the inhibition at 25 µM was 41.4%.

Consider `C/C(=C/C(=O)C[C@@H](C)[C@]1(C)CC[C@@]2(C)C3=CCC4C(C)(C)[C@H](O)CC[C@]4(C)[C@@H]3CC=C21)C(=O)O` (stereo partly drawn) [Compound 1a, Abiesatrine B], for which the “Agonistic activation (25 μM)” value in experiment [1] is 1.09. In addition, the “agonistic effect against estrogen receptor (ER) (in words)” value in experiment [4] (reported in a previous study, no reference given) is “moderate agonistic effect”. In addition, in experiment [2], inhibition was half-maximal at 13.5 µM (IC50), the “antagonistic activity against FXR (in words)” value is on record as “moderate antagonistic activity” and the inhibition at 25 µM is over 50%.

Turning to `O=C(O)C=Cc1ccc(O)cc1` [Compound 3d, P-coumaric acid], in experiment [1], the “Agonistic activation (25 μM)” value stood at 1.08. The “agonistic profiles against ER (in words)” value in experiment [4] is given as “agonistic profiles”. In addition, in experiment [2], half-maximal inhibition (IC50) was put at 14.1 µM, the “antagonistic activity against FXR (in words)” value is on record as “moderate antagonistic activities; also recorded: moderate antagonistic effects” and the inhibition at 25 µM came to 52.8%.

As to `O=C(/C=C/CCc1ccccc1)c1ccc(O)cc1` [Compound 3c, Daphnenone], in experiment [1], the “Agonistic activation (25 μM)” value is given as 1.29. Also, in experiment [2], the IC50 stood at 5.46 µM and the inhibition at 25 µM is over 50%.

Take `CN(C)c1cc(Cl)c(C(=O)N(Cc2ccccc2)c2ccc(O)c(C(C)(C)C)c2)c(Cl)c1` [Compound 18, N-benzyl-N-(3-(tert-butyl)-4-hydroxyphenyl)-2,6-dichloro-4-(dimethylamino) benzamide]: the IC50 in experiment [5] was 3.4 µM.

On to `COC(=O)/C=C/c1cccc(N(Cc2ccc(-c3ccc(N(C)C)cc3)cc2)C(=O)C2CCCCC2)c1` [Fexeramine, Fexaramine], for which the concentration giving a half-maximal response (EC50) in experiment [3] (reported FXR modulators, Figure 1, reference not given, read-out: EC50, FXR agonists (Figure 1)) is 0.025 µM.

`C/C(=C/C(=O)C[C@@H](C)[C@H]1CC[C@@]2(C)C3=CCC4C(C)(C)C(=O)CC[C@]4(C)C3CC[C@]12C)C(=O)O` (stereo partly drawn) [Compound 1b, (24Z)-3,23-Dioxo-9βH-lanosta-7,24-dien-27-oic acid]: the “Agonistic activation (25 μM)” value in experiment [1] amounted to 1.12. In experiment [2], the half-inhibitory concentration (IC50) is over 25 µM, the “antagonistic activity against FXR (in words)” value was “no detectable antagonistic activity” and the inhibition at 25 µM was 22.7%.

With `CC(=O)c1ccc2c(c1)C(=O)CC1[C@](C)(C(=O)O)CCC[C@]21C` (stereo partly drawn) [Compound 2b, 17-Nor-7,15-dion-8,11,13-abietatrien-18-oic acid], the “Agonistic activation (25 μM)” value in experiment [1] is on record as 0.90. Moreover, in experiment [2], the half-maximal inhibitory concentration (IC50) was over 25 µM, the “antagonistic activity against FXR (in words)” value is “no observed activity” and the inhibition at 25 µM came to 10.1%.

As for `CCCCCCCc1c(\C(C)=C/C=C/C(C)=C/C(=O)O)cc(C(C)C)cc1C(C)C` [Compound 14], in experiment [6], the IC50 was 0.3 µM.

Consider `CC1(CO)CCCC2(C)C1CCC1(C)C2CC(O)C2(C)C3COC(=O)C3=CCC12` (stereo not drawn) [Compound 8], for which, in experiment [7] (ref Nam et al., 2007), the IC50 is 2.4 µM.

For `CCCCC/C=C/C=C1/C=CC(=O)[C@@H]1C/C=C\CCCC(=O)O` [Compound 17], in experiment [8] (ref Xu et al., 2013), the concentration for half-maximal inhibition (IC50) is 7.25 µM.

Regarding `CC(C)=CCCC1=C[C@@H](C/C(C)=C/CC[C@@]2(C)C=Cc3cc(O)cc(C)c3O2)OC1=O` [Compound 10], the IC50 in experiment [7] (ref Choi et al., 2011) is 1.5 µM.

With `C/C(=C\CC[C@@H](C)[C@H]1CC[C@@]2(C)C3=CCC4C(C)(C)C(=O)CC[C@]4(C)C3CC[C@]12C)C(=O)O` (stereo partly drawn) [Compound 1c, Abiesatrine D], in experiment [1], the “Agonistic activation (25 μM)” value is reported as 0.93. Moreover, in experiment [2], the half-inhibitory concentration (IC50) is over 25 µM, the “antagonistic activity against FXR (in words)” value is “no detectable antagonistic activity” and the inhibition at 25 µM came out at 12.8%.

For `COc1cc(/C=C2\C(=O)N(c3cccc([N+](=O)[O-])c3)N=C2c2ccccc2)ccc1O` [Compound 11], in experiment [8] (ref Huang et al., 2012), the half-maximal inhibitory concentration (IC50) was 8.96 µM.

On to `CCOC(=O)c1ccc(O)cc1` [Compound 3e, Ethylparaben], for which the “Agonistic activation (25 μM)” value in experiment [1] is listed as 0.93. The “agonistic profiles against ER (in words)” value in experiment [4] is recorded as “agonistic profiles”. In experiment [2], the IC50 was 19.3 µM, the “antagonistic activity against FXR (in words)” value was “moderate antagonistic activities; also recorded: moderate antagonistic effects” and the inhibition at 25 µM was 60.1%.

What is called IC50 is the concentration needed to halve the response being measured. As usually defined, the EC50 is the midpoint of the concentration-response curve. The term inhibition denotes how much of the control response was suppressed.
